Data from US6656956B2, “Benzimidazole derivatives, processes for preparing them and their use as pharmaceutical compositions” (Boehringer Ingelheim Pharma KG, priority 2001, dated 2003).
Where a name gives a salt, the structure may show the parent alone.

Molecular target: T1, rh beta tryptase (Homo sapiens, UniProt Q15661)
T1 construct: purchased Promega
Test: tryptase inhibition in vitro test (cleavage of N-p-tosyl-Gly-Pro-Lys-para-nitroaniline, p-nitroaniline measured at 405 nm)
Type: biochemical
Conditions: rh beta tryptase 0.91 U/ml, substrate 0.6 mM, Tris HCl buffer with calcium and heparin, pH 7.4, 37° C., 5 minutes incubation; read-out: Tryptase-inhibiting activity
Protocol: The compounds according to the invention are characterised by their tryptase-inhibiting activity. This ability to inhibit tryptase was investigated using the test described below.
The measurement is carried out in Tris HCl buffer (100 mM), which additionally contains calcium (5 mM) and heparin ([…]), at pH 7.4. The standard used is rh beta tryptase which may be obtained commercially from Promega, for example. The substrate used is N-p-tosyl-Gly-Pro-Lys-para-nitroaniline in a concentration of 0.6 mM. The substrate is digested with tryptase to form p-nitroaniline which can be measured at 405 nm. Usually, an incubation period of 5 minutes and an incubation temperature of 37° C. are chosen. The enzyme activity used is 0.91 U/ml. The measurements are carried out in an Autoanalyser (Cobas Bio) made by Hofmann LaRoche. The potential inhibitory substances are used in concentrations of 10 μM in the screening, the inhibition of the tryptase being given in percent. The IC50 is determined at over 70% inhibition (concentration at which 50% of the enzyme activity is inhibited). After 5 minutes' pre-incubation of the potential inhibitory substances, the substrate is added to start the reaction, the formation of p-nitroaniline being taken as a measurement of the enzyme activity after 5 minutes, after testing the linearity.

T1 sequence (Q15661 31-275): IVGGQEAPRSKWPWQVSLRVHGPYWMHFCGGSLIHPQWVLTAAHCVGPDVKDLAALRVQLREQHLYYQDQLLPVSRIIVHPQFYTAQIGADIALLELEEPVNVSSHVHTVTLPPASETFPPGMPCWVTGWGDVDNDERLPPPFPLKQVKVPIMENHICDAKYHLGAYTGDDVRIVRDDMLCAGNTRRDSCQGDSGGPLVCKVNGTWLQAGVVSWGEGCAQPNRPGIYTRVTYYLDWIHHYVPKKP

SMILES	IC50
CN(C)CCCN(C)C(=O)N(Cc1cccc2ccccc12)c1ccc2c(c1)nc(CCc1ccc(C(=N)N)cc1)n2C [Example 78, N-{2-[2-(4-Amidinophenyl)-ethyl]-1-methyl-benzimidazol-5-yl}-N-[naphth-1-ylmethyl]-N′-methyl-N′-(3-dimethylamino-propyl)-urea, hydrochloride]	31 to 1000 nM
CN(C(=O)CN1CCC(Nc2ccccc2I)CC1)c1ccc2c(c1)nc(CCc1ccc(C(=N)N)cc1)n2C [Example 37, N-{2-[2-(4-Amidinophenyl)-ethyl]-1-methyl-benzimidazol-5-yl}-N-methyl-2-[4-(2-iodophenylamino)-piperid-1-yl]-acetamide, dihydrochloride]	0.5 to 3 nM
Cn1c(CCc2ccc(C(=N)N)cc2)nc2cc(N(Cc3cccc4ccccc34)C(=O)NC3CCC(Nc4ccccn4)CC3)ccc21 (stereo not shown) [Example 76, N-{2-[2-(4-Amidinophenyl)-ethyl]-1-methyl-benzimidazol-5-yl}-N-[naphth-1-ylmethyl]-N′-[4-(2-pyridyl)-amino-cyclohexyl)-urea, hydrochloride]	31 to 1000 nM
Cc1ccccc1NC1CCN(CC(=O)N(C)c2ccc3c(c2)nc(CCc2ccc(C(=N)N)cc2)n3C)CC1 [Example 63, dihydrochloride]	4 to 30 nM
CN(C(=O)CN1CCC(Nc2ccc(C(C)(C)C)cc2Cl)CC1)c1ccc2c(c1)nc(CCc1ccc(C(=N)N)cc1)n2C [Example 69, N-{2-[2-(4-Amidinophenyl)-ethyl]-1-methyl-benzimidazol-5-yl}-N-methyl-2-[4-(2-chloro-4-tert.butylamino)-piperid-1-yl]-acetamide, dihydrochloride]	31 to 1000 nM
Cn1c(CCc2ccc(C(=N)N)cc2)nc2cc(NC(=O)CN3CCC(Nc4ccccn4)CC3)ccc21 [Example 52, N-{2-[2-(4-Amidinophenyl)-ethyl]-1-methyl-benzimidazol-5-yl}-2-[4-(2-pyridylamino)-piperid-1-yl]-acetamide, dihydrochloride]	31 to 1000 nM
CN(C(=O)CN1CCC(Nc2ccccc2OC(F)(F)F)CC1)c1ccc2c(c1)nc(CCc1ccc(C(=N)N)cc1)n2C [Example 39, N-{2-[2-(4-Amidinophenyl)-ethyl]-1-methyl-benzimidazol-5-yl}-N-methyl-2-[4-(2-trifluoromethoxyphenylamino)-piperid-1-yl]-acetamide, dihydrochloride]	4 to 30 nM
CN(C(=O)CN1CCC(Nc2ccccn2)CC1)c1ccc2c(c1)nc(CCc1ccc(C(=N)N)cc1)n2C [Example 28, N-{2-[2-(4-Amidinophenyl)-ethyl]-1-methyl-benzimidazol-5-yl}-N-methyl-2-[4-(2-pyridylamino)-piperid-1-yl]-acetamide, dihydrochloride]	4 to 30 nM
CN(C(=O)CN1CCC(Nc2ccc(C(F)(F)F)cc2Br)CC1)c1ccc2c(c1)nc(CCc1ccc(C(=N)N)cc1)n2C [Example 67, N-{2-[2-(4-Amidinophenyl)-ethyl]-1-methyl-benzimidazol-5-yl}-N-methyl-2-[4-(2-bromo-4-trifluoromethylamino)-piperid-1-yl]-acetamide, dihydrochloride]	4 to 30 nM
CCOC(=O)CCN(C(=O)CN1CCC(Nc2ccccn2)CC1)c1ccc2c(c1)nc(CCc1ccc(C(=N)N)cc1)n2C [Example 53, N-{2-[2-(4-Amidinophenyl)-ethyl]-1-methyl-benzimidazol-5-yl}-N-[ethyl ethanecarboxylate]-2-[4-(2-pyridylamino)-piperid-1-yl]-acetamide, dihydrochloride]	4 to 30 nM

Further lines, results first:

IC50	SMILES
4 to 30 nM	CN(c1ccccn1)C1CCN(CC(=O)N(Cc2cccc3ccccc23)c2ccc3c(c2)nc(CCc2ccc(C(=N)N)cc2)n3C)CC1 [Example 19, N-{2-[2-(4-Amidinophenyl)-ethyl]-1-methyl-benzimidazol-5-yl}-N-[naphth-1-ylmethyl]-2-[4-(2-pyridyl-N-methyl-amino)-piperid-1-yl]-acetamide, dihydrochloride]
31 to 1000 nM	Cn1c(CCc2ccc(C(=N)N)cc2)nc2cc(N(Cc3cccc4ccccc34)C(=O)Nc3ccccc3)ccc21 [Example 72, N-{2-[2-(4-Amidinophenyl)-ethyl]-1-methyl-benzimidazol-5-yl}-N-[naphth-1-ylmethyl]-N′-phenyl-urea, hydrochloride]
0.5 to 3 nM	CN(C(=O)CN1CCC(Nc2ccccc2Cl)CC1)c1ccc2c(c1)nc(CCc1ccc(C(=N)N)cc1)n2C [Example 31, N-{2-[2-(4-Amidinophenyl)-ethyl]-1-methyl-benzimidazol-5-yl}-N-methyl-2-[4-(2-chlorophenylamino)-piperid-1-yl]-acetamide, dihydrochloride]
4 to 30 nM	CCOC(=O)CCN(C)C1CCN(CC(=O)N(Cc2cccc3ccccc23)c2ccc3c(c2)nc(CCc2ccc(C(=N)N)cc2)n3C)CC1 [Example 21, N-{2-[2-(4-Amidinophenyl)-ethyl]-1-methyl-benzimidazol-5-yl}-N-[naphth-1-ylmethyl]-2-[4-(ethyl N-methyl-N-propionate)-piperid-1-yl]-acetamide, trihydrochloride]
4 to 30 nM	Cn1c(CCc2ccc(C(=N)N)cc2)nc2cc(N(Cc3cccc4ccccc34)C(=O)CN3CCC(Nc4ccc(-c5ccccc5)cc4)CC3)ccc21 [Example 23, N-{2-[2-(4-Amidinophenyl)-ethyl]-1-methyl-benzimidazol-5-yl}-N-[naphth-1-ylmethyl]-2-[4-(4-biphenylamino)-piperid-1-yl]-acetamide, dihydrochloride]
0.5 to 3 nM	Cn1c(CCc2ccc(C(=N)N)cc2)nc2cc(N(Cc3ccccc3)C(=O)CN3CCC(Nc4ccccc4F)CC3)ccc21 [Example 59, N-{2-[2-(4-Amidinophenyl)-ethyl]-1-methyl-benzimidazol-5-yl}-N-benzyl-2-[4-(2-fluorophenylamino)-piperid-1-yl]-acetamide, dihydrochloride]
0.5 to 3 nM	CN(C(=O)CN1CCC(Nc2ccccc2Br)CC1)c1ccc2c(c1)nc(CCc1ccc(C(=N)N)cc1)n2C [Example 35, N-{2-[2-(4-Amidinophenyl)-ethyl]-1-methyl-benzimidazol-5-yl}-N-methyl-2-[4-(2-bromophenylamino)-piperid-1-yl]-acetamide, dihydrochloride]
0.5 to 3 nM	Cn1c(CCc2ccc(C(=N)N)cc2)nc2cc(N(Cc3cccc4ccccc34)C(=O)CN3CCC(Nc4cccc(Cl)c4)CC3)ccc21 [Example 11, N-{2-[2-(4-Amidinophenyl)-ethyl]-1-methyl-benzimidazol-5-yl}-N-[naphth-1-ylmethyl]-2-[4-(3-chlorophenylamino)-piperid-1-yl]-acetamide, dihydrochloride]
0.5 to 3 nM	CN(C(=O)CN1CCC(Nc2ccc3ccccc3c2)CC1)c1ccc2c(c1)nc(CCc1ccc(C(=N)N)cc1)n2C [Example 30, N-{2-[2-(4-Amidinophenyl)-ethyl]-1-methyl-benzimidazol-5-yl}-N-methyl-2-[4-(2-naphthylamino)-piperid-1-yl]-acetamide, dihydrochloride]
0.5 to 3 nM	Cn1c(CCc2ccc(C(=N)N)cc2)nc2cc(N(Cc3cccc4ccccc34)C(=O)CN3CCC(Nc4ccc(Cl)cc4)CC3)ccc21 [Example 10, N-{2-[2-(4-Amidinophenyl)-ethyl]-1-methyl-benzimidazol-5-yl}-N-[naphth-1-ylmethyl]-2-[4-(4-chlorophenylamino)-piperid-1-yl]-acetamide, dihydrochloride]
0.5 to 3 nM	CN(C(=O)CN1CCC(Nc2cccc(Cl)c2)CC1)c1ccc2c(c1)nc(CCc1ccc(C(=N)N)cc1)n2C [Example 106, N-{2-[2-(4-Amidinophenyl)-ethyl]-1-methyl-benzimidazol-5-yl}-N-methyl-2-[4-(3-chlorophenylamino)-piperid-1-yl]-acetamide, dihydrochloride]
4 to 30 nM	CN(C)c1ccc(CN(C(=O)CN2CCC(Nc3ccccn3)CC2)c2ccc3c(c2)nc(CCc2ccc(C(=N)N)cc2)n3C)c2ccccc12 [Example 51, N-{2-[2-(4-Amidinophenyl)-ethyl]-1-methyl-benzimidazol-5-yl}-N-[4-dimethylamino-naphth-1-ylmethyl]-2-[4-(2-pyridylamino)-piperid-1-yl]-acetamide, dihydrochloride]
4 to 30 nM	CN(CCCO)C1CCN(CC(=O)N(Cc2cccc3ccccc23)c2ccc3c(c2)nc(CCc2ccc(C(=N)N)cc2)n3C)CC1 [Example 2, N-{2-[2-(4-Amidinophenyl)-ethyl]-1-methyl-benzimidazol-5-yl}-N-[naphth-1-ylmethyl]-2-{4-[N-methyl-N-(3-hydroxypropyl)-amino]-piperid-1-yl}-acetamide, Trihydrochloride]
4 to 30 nM	Cn1c(CCc2ccc(C(=N)N)cc2)nc2cc(N(Cc3cccc4ccccc34)C(=O)CN3CCC(Nc4ccncc4)CC3)ccc21 [Example 27, N-{2-[2-(4-Amidinophenyl)-ethyl]-1-methyl-benzimidazol-5-yl}-N-[naphth-1-ylmethyl]-2-[4-(4-pyridylamino)-piperid-1-yl]-acetamide, dihydrochloride]
4 to 30 nM	Cn1c(CCc2ccc(C(=N)N)cc2)nc2cc(N(Cc3cccc([N+](=O)[O-])c3)C(=O)CN3CCC(Nc4ccccn4)CC3)ccc21 [Example 50, N-{2-[2-(4-Amidinophenyl)-ethyl]-1-methyl-benzimidazol-5-yl}-N-[3-nitrophenylmethyl]-2-[4-(2-pyridylamino)-piperid-1-yl]-acetamide, dihydrochloride]
